# Values of other authors as cited in US20240316072A1, “THERAPEUTIC COMPOSITIONS, […] METHODS OF PREPARATION AND USE THEREOF” (Unique Flower LLC, priority 2023, published 2024).
# Conditions: administration of β-Myrcene in the amount of 0.5 mg/g or more; generally understood
structure (smiles),measurement,value
C=CC(=C)CCC=C(C)C [β-Myrcene],effect in a subject,"heavy, narcotic, “couch lock” effect"
